Laboratory results as given in patent US9221827B2, “Antimicrobial compounds and methods of making and using the same” (Melinta Therapeutics, Inc., priority 2011, dated 2015).

Tested on: Escherichia coli strain ATCC25922
Experiment: standard microdilution assay to determine minimum inhibitory concentrations (MICs)
Assay type: cell-based
Method: The in vitro activity of the compounds of the present invention can be determined. Antimicrobial testing is typically performed to determine the minimum inhibitory concentration (MIC). Minimum inhibitory concentrations (MICs) are determined by the microdilution method in a final volume of 100 μl according to protocols outlined by The Clinical and Laboratory Standards Institute (CLSI). Performance standards for reference strains are assessed within the same experimental design to maintain quality control. See, for example, Clinical Laboratory Standards Institute: Methods for dilution antimicrobial susceptibility tests for bacteria that grow aerobically M7-A8. Approved Standard-Eighth Edition. Wayne, Pa.: CLSI; December 2008; and Clinical Laboratory Standards Institute: Performance Standards for Antimicrobial Susceptibility Testing M100-S20; Approved Standard-Twentieth Edition. Wayne, Pa.: CLSI; June 2010.
The compounds of the present invention were tested for antimicrobial activity. […] The compounds were run against Escherichia coli strain ATCC25922 using a standard microdilution assay to determine minimum inhibitory concentrations (MICs). […] A “N/A” means that data is unavailable. It will be recognized by one skilled in the art that the compounds can be assessed against other bacterial organisms and that the presentation of data for activity against Escherichia coli is illustrative and in no way is intended to limit the scope of the present invention. The compounds of the present invention can be assayed against a range of other microorganisms depending upon the performance activity desired to be gathered. Furthermore, the “+”, “−”, and “N/A” representation and the selection of a cutoff value of 16 micrograms/ml is also illustrative and in no way is intended to limit the scope of the present invention.

[1] = Escherichia coli strain ATCC25922, standard microdilution assay
[2] = Escherichia coli strain ATCC25922, microdilution

SMILES | E. coli ATCC25922 MIC [1] | E. coli ATCC25922 MIC [2]
CC(NCCCNC(=N)N)c1ccc(-n2cc3cc(-c4cc(CC5CC(CN)C5)cc(SC(F)(F)F)c4)[nH]c3nc2=O)cc1 (mixture of isomers) [Compound 401] | + (a “+” indicates that the compound has an MIC value of 16 micrograms/ml or less) | –
CC(NCCCNC(=N)N)c1ccc(-n2cc3cc(-c4cc(CC5CCC(N)C5)cc(SC(F)(F)F)c4)[nH]c3nc2=O)cc1 (mixture of isomers) [Compound 420] | + (a “+” indicates that the compound has an MIC value of 16 micrograms/ml or less) | –
CC(NCCCNC(=N)N)c1ccc(-n2cc3cc(-c4cc(CC5CCC(N)C5)cc(Cl)c4F)[nH]c3nc2=O)cc1 (mixture of isomers) [Compound 421] | + (a “+” indicates that the compound has an MIC value of 16 micrograms/ml or less) | –
CC(NCCCNC(=N)N)c1ccc(-n2cc3cc(-c4cc(COC5CC(N)C5)cc(OC(F)(F)F)c4)[nH]c3nc2=O)cc1 (mixture of isomers) [Compound 423] | + (a “+” indicates that the compound has an MIC value of 16 micrograms/ml or less) | –
N=C(N)NCCCNCc1ccc(-n2cc3cc(-c4cc(C5CCC(N)CC5)cc(C(F)(F)F)c4)[nH]c3nc2=O)cc1 (mixture of isomers) [Compound 425] | + (a “+” indicates that the compound has an MIC value of 16 micrograms/ml or less) | –
CC(NCCCNC(=N)N)c1ccc(-n2cc3cc(-c4cc(C5CCC(N)CC5)cc(C(F)(F)F)c4)[nH]c3nc2=O)cc1 (mixture of isomers) [Compound 426] | + (a “+” indicates that the compound has an MIC value of 16 micrograms/ml or less) | –
N=C(N)NCCCNCc1ccc(-n2cc3cc(-c4cc(C5CCC(CN)CC5)cc(C(F)(F)F)c4)[nH]c3nc2=O)cc1 (mixture of isomers) [Compound 429] | + (a “+” indicates that the compound has an MIC value of 16 micrograms/ml or less) | –
CC(NCCCNC(=N)N)c1ccc(-n2cc3cc(-c4cc(C5CCC(CN)CC5)cc(C(F)(F)F)c4)[nH]c3nc2=O)cc1 (mixture of isomers) [Compound 430] | + (a “+” indicates that the compound has an MIC value of 16 micrograms/ml or less) | –
C[S+]([O-])Cc1cc(CCCCN)cc(-c2cc3cn(-c4ccc(CNCCCNC(=N)N)cc4)c(=O)nc3[nH]2)c1 (stereo not drawn) [Compound 2] | – | + (a “+” indicates that the compound has an MIC value of 16 micrograms/ml or less)
COCc1cc(CCCCN)cc(-c2cc3cn(-c4ccc(CNCCCNC(=N)N)cc4)c(=O)nc3[nH]2)c1 [Compound 3] | – | + (a “+” indicates that the compound has an MIC value of 16 micrograms/ml or less)
N=C(N)NCCCNCc1ccc(-n2cc3cc(-c4cc(CCCCN)cc(C5CNC5)c4)[nH]c3nc2=O)cc1 [Compound 4] | – | + (a “+” indicates that the compound has an MIC value of 16 micrograms/ml or less)
N=C(N)NCCCNCc1ccc(-n2cc3cc(-c4cccc(CCCCN)c4F)[nH]c3nc2=O)cc1 [Compound 5] | – | + (a “+” indicates that the compound has an MIC value of 16 micrograms/ml or less)
N=C(N)NCCCNCc1ccc(-n2cc3cc(-c4c(F)c(F)cc(CCCCN)c4F)[nH]c3nc2=O)cc1 [Compound 6] | – | + (a “+” indicates that the compound has an MIC value of 16 micrograms/ml or less)
N=C(N)NCCCNCc1ccc(-n2cc3cc(-c4cc(CSCCN)ccc4F)[nH]c3nc2=O)cc1 [Compound 7] | – | + (a “+” indicates that the compound has an MIC value of 16 micrograms/ml or less)
N=C(N)NCCCNCc1ccc(-n2cc3cc(-c4cc(CSCCN)cc(OC(F)(F)F)c4)[nH]c3nc2=O)cc1 [Compound 8] | – | + (a “+” indicates that the compound has an MIC value of 16 micrograms/ml or less)
Cc1cc(CCCCN)cc(-c2cc3cn(-c4ccc(CNCCCNC(=N)N)cc4)c(=O)nc3[nH]2)c1 [Compound 9] | – | + (a “+” indicates that the compound has an MIC value of 16 micrograms/ml or less)
N=C(N)NCCCNCc1ccc(-n2cc3cc(-c4c(Cl)ccc(CCCCN)c4Cl)[nH]c3nc2=O)cc1 [Compound 10] | – | + (a “+” indicates that the compound has an MIC value of 16 micrograms/ml or less)
CSCCc1cc(CCCCN)cc(-c2cc3cn(-c4ccc(CNCCCNC(=N)N)cc4)c(=O)nc3[nH]2)c1 [Compound 11] | – | + (a “+” indicates that the compound has an MIC value of 16 micrograms/ml or less)
COc1cc(CCCCN)cc(-c2cc3cn(-c4ccc(CNCCCNC(=N)N)cc4)c(=O)nc3[nH]2)c1 [Compound 14] | – | + (a “+” indicates that the compound has an MIC value of 16 micrograms/ml or less)
N=C(N)NCCCNCc1ccc(-n2cc3cc(-c4cc(CS(=O)(=O)CCN)ccc4F)[nH]c3nc2=O)cc1 [Compound 15] | – | + (a “+” indicates that the compound has an MIC value of 16 micrograms/ml or less)

SMILES | E. coli ATCC25922 MIC [1] | E. coli ATCC25922 MIC [2]
N=C(N)NCCCNCc1ccc(-n2cc3cc(-c4cc(CS(=O)(=O)CCN)cc(OC(F)(F)F)c4)[nH]c3nc2=O)cc1 [Compound 16] | – | + (a “+” indicates that the compound has an MIC value of 16 micrograms/ml or less)
N=C(N)NCCCNCc1ccc(-n2cc3cc(-c4cc(CCCCN)cc(C5CC5)c4)[nH]c3nc2=O)cc1 [Compound 18] | – | + (a “+” indicates that the compound has an MIC value of 16 micrograms/ml or less)
CS(=O)(=O)CCc1cc(CCCCN)cc(-c2cc3cn(-c4ccc(CNCCCNC(=N)N)cc4)c(=O)nc3[nH]2)c1 [Compound 22] | – | + (a “+” indicates that the compound has an MIC value of 16 micrograms/ml or less)
N=C(N)NCCCNCc1ccc(-n2cc3cc(-c4cc(C[S+]([O-])CCN)ccc4F)[nH]c3nc2=O)cc1 (stereo not drawn) [Compound 23] | – | + (a “+” indicates that the compound has an MIC value of 16 micrograms/ml or less)
N=C(N)NCCCNCc1ccc(-n2cc3cc(-c4cc(COCCN)ccc4F)[nH]c3nc2=O)cc1 [Compound 24] | – | + (a “+” indicates that the compound has an MIC value of 16 micrograms/ml or less)
CCNCCc1cc(CCCCN)cc(-c2cc3cn(-c4ccc(CNCCCNC(=N)N)cc4)c(=O)nc3[nH]2)c1 [Compound 26] | – | + (a “+” indicates that the compound has an MIC value of 16 micrograms/ml or less)
CC(N)CCCc1cc(-c2cc3cn(-c4ccc(CNCCCNC(=N)N)cc4)c(=O)nc3[nH]2)cc(C(F)(F)F)c1 (stereo not drawn) [Compound 27] | – | + (a “+” indicates that the compound has an MIC value of 16 micrograms/ml or less)
N=C(N)NCCCNCc1ccc(-n2cc3cc(-c4cc(C(O)CCCN)cc(C(F)(F)F)c4)[nH]c3nc2=O)cc1 (stereo not drawn) [Compound 29] | – | + (a “+” indicates that the compound has an MIC value of 16 micrograms/ml or less)
N=C(N)NCC(F)(F)CNCc1ccc(-n2cc3cc(-c4cc(CCCCN)cc(OC(F)(F)F)c4)[nH]c3nc2=O)cc1 [Compound 30] | – | + (a “+” indicates that the compound has an MIC value of 16 micrograms/ml or less)
CC(C)(CNCc1ccc(-n2cc3cc(-c4cc(CCCCN)cc(OC(F)(F)F)c4)[nH]c3nc2=O)cc1)CNC(=N)N [Compound 31] | – | + (a “+” indicates that the compound has an MIC value of 16 micrograms/ml or less)
C[S+]([O-])c1cc(CCCCN)cc(-c2cc3cn(-c4ccc(CNCCCNC(=N)N)cc4)c(=O)nc3[nH]2)c1 (stereo not drawn) [Compound 32] | – | + (a “+” indicates that the compound has an MIC value of 16 micrograms/ml or less)
CS(=O)(=O)c1cc(CCCCN)cc(-c2cc3cn(-c4ccc(CNCCCNC(=N)N)cc4)c(=O)nc3[nH]2)c1 [Compound 33] | – | + (a “+” indicates that the compound has an MIC value of 16 micrograms/ml or less)
C[C@H](CNCc1ccc(-n2cc3cc(-c4cc(CCCCN)cc(OC(F)(F)F)c4)[nH]c3nc2=O)cc1)CNC(=N)N [Compound 34] | – | + (a “+” indicates that the compound has an MIC value of 16 micrograms/ml or less)
C[C@@H](CNCc1ccc(-n2cc3cc(-c4cc(CCCCN)cc(OC(F)(F)F)c4)[nH]c3nc2=O)cc1)CNC(=N)N [Compound 35] | – | + (a “+” indicates that the compound has an MIC value of 16 micrograms/ml or less)
N=C(N)NCCCNCc1ccc(-n2cc3cc(-c4cc(COCCN)cc(OC(F)(F)F)c4)[nH]c3nc2=O)cc1 [Compound 36] | – | + (a “+” indicates that the compound has an MIC value of 16 micrograms/ml or less)
N=C(N)NCCCNCc1ccc(-n2cc3cc(-c4cc(CCCCN)cc(F)c4Cl)[nH]c3nc2=O)cc1 [Compound 37] | – | + (a “+” indicates that the compound has an MIC value of 16 micrograms/ml or less)
N=C(N)NCCCCc1cc(F)c(Cl)c(-c2cc3cn(-c4ccc(CNCCCNC(=N)N)cc4)c(=O)nc3[nH]2)c1 [Compound 38] | – | + (a “+” indicates that the compound has an MIC value of 16 micrograms/ml or less)
N=C(N)NCCCNCc1ccc(-n2cc3cc(-c4cc(CCCCN)cc(OC(F)(F)F)c4)[nH]c3nc2=O)cc1F [Compound 39] | – | + (a “+” indicates that the compound has an MIC value of 16 micrograms/ml or less)
N=C(N)NCCCNCc1ccc(-n2cc3cc(-c4cc(CCCCN)cc(C5CCC5)c4)[nH]c3nc2=O)cc1 [Compound 40] | – | + (a “+” indicates that the compound has an MIC value of 16 micrograms/ml or less)
